Experimental data: patent US9004752B2, “Method for evaluating the solubility of a crystalline substance in a polymer” (Abbvie, Inc., priority 2008, dated 2015)

Assays:
[1] = assay type: physicochemical; conditions: 30% w/w in PVP, initially amorphous, yielded crystals
Method: To set up an aging experiment, the sample was added into an open DSC pan and heated up on a microscope hot-stage (Linkam THMS 600) to Tm+20° C. under vacuum. The application of vacuum removed air bubbles trapped in the viscous melt. The pan was then quenched to room temperature, sealed immediately, and aged in an oven of known temperature.
To verify the solubility of D-mannitol in PVP obtained with the DSC method (Method I), we used two other solubility-indicating methods (FIG. 7). In the first (Method II), D-mannitol was mixed with PVP at a concentration higher than predicted. The mixture was then aged to see whether the supersaturated solution indeed crystallized over time. We tracked three indicators of crystallization: (a) the glass transition temperature Tg of the mixture, which is expected to increase when D-mannitol is removed from its mixture with PVP (FIG. 5); (b) the appearance of new endotherms with aging which correspond to the dissolution of newly crystallized D-mannitol; and (c) new crystals observable by polarized light microscopy. Modulated DSC (MDSC) was used to measure Tg. In the second method (Method III), D-mannitol was mixed with PVP at high enough concentration so that D-mannitol rapidly crystallized. […]
For Method II, D-mannitol was mixed with PVP by cryogenic milling at 30% w/w. […] The mixture was analyzed by DSC at times ranging from a few days to 155 days. […]

[2] = DSC dissolution-endpoint method (Method I): solubility of a crystalline substance in a polymer; conditions: for solubility in PVP: by extrapolation
Method: In a typical procedure, 0.5-1 g of solute/polymer powder was milled at 10 Hz. Each cycle of milling was 2 min, followed by a 2 min cool-down. The cycle was repeated to achieve a desired milling time (16-60 min).
Standard and modulated differential scanning calorimetry (DSC) was conducted in hermetic aluminium pans using a TA Instruments DSC Q1000. 5-10 mg of the sample was packed into the pans. A pin hole was made in the lid to allow the escape of moisture. Standard DSC was performed at heating rates from 0.1 to 3° C./min. Modulated DSC was used to observe the glass transition of the amorphous phase at a heating rate of 2° C./min with the temperature modulating at ±0.5° C. every 60 second.
To further minimize the effect of slow dissolution on the measurement of equilibrium solubility, we measured Tend at several heating rates (FIG. 3) and obtained the Tend at zero heating rate by extrapolation (FIG. 4).
The larger the difference (Tend−Tg), the lower the viscosity of the solution in which D-mannitol completed its dissolution. […] For such systems, Tend changed rapidly and non-linearly with the heating rate, making the extrapolation to zero heating rate less certain. […] Despite this limitation the method enabled us to get sufficiently close to Tg to estimate the solubility of D-mannitol in PVP at Tg: by extrapolation. […] At 95° C., the saturated solution exists at the glass transition temperature.
As in the case of D-mannitol/PVP, cryomilling was used to prepare drug/polymer mixtures. […] As in the case of the D-mannitol/PVP, cryomilling facilitated the determination of dissolution endpoint.

state of the 30% solution in PVP on aging [1]: supersaturated
predicted solubility in PVP (Method I) ([2]; 105° C., temperature chosen for the validation tests): 15%
solubility in PVP ([2]; PVP K15, […]): 15 % w/w
solubility in PVP ([2]; PVP K15, at 95° C., […]): 10 % w/w
SMILES: OC[C@@H](O)[C@@H](O)[C@H](O)[C@H](O)CO [D-mannitol]
